# Measured values as given in the supplement of paper PMC4862054.
# How the values were obtained:
# Conditions in all cases: incubation time: 72 h
# MDA-MB-231 = assay: normalised viability (% of control), CellTiter-Blue; higher = more viable cells (about 100 = DMSO control)
# Outline: (§1)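 Breast cancer cell lines were treated for 72 h in 384-well format and measured by CellTiter-Blue fluorescence at 560/590 nm. Results were normalised per plate to vehicle (100) and a positive kill control (0). The entry is normalised viability at a single listed concentration of the series.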
# MFM-223 [1] = assay: as above
# Outline: as §1
# HDQ-P1 = assay: as above
# Outline: as §1
# Hs578T [2] = assay: as above
# Outline: as §1
# CAL-148 = assay: as above
# Outline: as §1
# SK-BR-3 = assay: as above
# Outline: as §1
# BT-474 = assay: as above
# Outline: as §1
# DU-4475 = assay: as above
# Outline: as §1
# CAL-120 [3] = assay: as above
# Outline: as §1
# CAL-85-1 [4] = assay: as above
# Outline: as §1
# MDA-MB-468 = assay: as above
# Outline: as §1
# MDA-MB-436 [5] = assay: as above
# Outline: as §1
# BT-549 = assay: as above
# Outline: as §1
# HCC1937 [6] = assay: as above
# Outline: as §1
# HCC1143 = assay: as above
# Outline: as §1
# CAL-51 = assay: as above
# Outline: as §1
# MFM-223 [7] = assay: normalised response (% of control), CellTiter-Glo; higher = more viable cells (100 = DMSO, 0 = benzethonium chloride kill control)
# Outline: (§2)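 Breast cancer cell lines were exposed for 72 h in 384-well plates to compound at 5 concentrations, 10-fold apart, covering a 10,000-fold range fixed for each compound. Plates were read for CellTox Green fluorescence and CellTiter-Glo luminescence and normalised to 0.1 % DMSO (100) and a positive kill control (0). Each value is the normalised signal at one concentration of the series.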
# Hs578T [8] = assay: as above
# Outline: as §2
# MDA-MB-453 = assay: as above
# Outline: as §2
# MCF-10A = assay: as above
# Outline: as §2
# HCC1599 = assay: as above
# Outline: as §2
# CAL-120 [9] = assay: as above
# Outline: as §2
# CAL-85-1 [10] = assay: as above
# Outline: as §2
# MDA-MB-436 [11] = assay: as above
# Outline: as §2
# HCC1937 [12] = assay: as above
# Outline: as §2
smiles,measurement,setting,value
Cc1c(C(=O)Nc2ccc(N3C[C@@H](C)O[C@@H](C)C3)nc2)cccc1-c1ccc(OC(F)(F)F)cc1 [NVP-LDE225],normalised viability,MDA-MB-231; 10 nM,121%
same,normalised viability,MDA-MB-231; 1000 nM,102%
same,normalised viability,MDA-MB-231; 10000 nM,82.9%
same,normalised viability,MFM-223 [1]; 10 nM,93.5%
same,normalised viability,MFM-223 [1]; 1000 nM,93.8%
same,normalised viability,MFM-223 [1]; 10000 nM,88.2%
same,normalised viability,HDQ-P1; 3 nM,76.2%
same,normalised viability,HDQ-P1; 30 nM,84%
same,normalised viability,HDQ-P1; 100 nM,84.9%
same,normalised viability,Hs578T [2]; 10 nM,118%
same,normalised viability,Hs578T [2]; 1000 nM,107%
same,normalised viability,Hs578T [2]; 10000 nM,87%
same,normalised viability,CAL-148; 3 nM,99.6%
same,normalised viability,CAL-148; 30 nM,101%
same,normalised viability,CAL-148; 100 nM,106%
same,normalised viability,SK-BR-3; 10 nM,104%
same,normalised viability,SK-BR-3; 1000 nM,102%
same,normalised viability,SK-BR-3; 10000 nM,111%
same,normalised viability,BT-474; 10 nM,96.5%
same,normalised viability,BT-474; 1000 nM,101%
same,normalised viability,BT-474; 10000 nM,63.5%
same,normalised viability,DU-4475; 3 nM,105%
same,normalised viability,DU-4475; 30 nM,112%
same,normalised viability,DU-4475; 100 nM,96%
same,normalised viability,CAL-120 [3]; 10 nM,99.9%
same,normalised viability,CAL-120 [3]; 1000 nM,92.7%
same,normalised viability,CAL-120 [3]; 10000 nM,97%
same,normalised viability,CAL-85-1 [4]; 3 nM,100%
same,normalised viability,CAL-85-1 [4]; 30 nM,86%
same,normalised viability,CAL-85-1 [4]; 100 nM,104%
same,normalised viability,MDA-MB-468; 10 nM,109%
same,normalised viability,MDA-MB-468; 1000 nM,109%
same,normalised viability,MDA-MB-468; 10000 nM,91.9%
same,normalised viability,MDA-MB-436 [5]; 10 nM,83%
same,normalised viability,MDA-MB-436 [5]; 1000 nM,29.2%
same,normalised viability,MDA-MB-436 [5]; 10000 nM,67.3%
same,normalised viability,BT-549; 10 nM,113%
same,normalised viability,BT-549; 1000 nM,96%
same,normalised viability,BT-549; 10000 nM,97.3%
same,normalised viability,HCC1937 [6]; 10 nM,38.8%
same,normalised viability,HCC1937 [6]; 1000 nM,92.7%
same,normalised viability,HCC1937 [6]; 10000 nM,82.1%
same,normalised viability,HCC1143; 10 nM,108%
same,normalised viability,HCC1143; 1000 nM,102%
same,normalised viability,HCC1143; 10000 nM,96.4%
same,normalised viability,CAL-51; 3 nM,105%
same,normalised viability,CAL-51; 30 nM,101%
same,normalised viability,CAL-51; 100 nM,101%
CC(C)C[C@H](NC(=O)[C@H](CCc1ccccc1)NC(=O)CN1CCOCC1)C(=O)N[C@@H](Cc1ccccc1)C(=O)N[C@@H](CC(C)C)C(=O)[C@@]1(C)CO1 [Carfilzomib] (100 nM),normalised response,MFM-223 [7],4.43%
same,normalised response,Hs578T [8],0.88%
same,normalised response,MDA-MB-453,12.2%
same,normalised response,MCF-10A,43.6%
same,normalised response,HCC1599,52%
same,normalised response,CAL-120 [9],2.73%
same,normalised response,CAL-85-1 [10],0.78%
same,normalised response,MDA-MB-436 [11],1.46%
same,normalised response,HCC1937 [12],4.85%
NC1(c2ccc(-c3nc4ccn5c(=O)[nH]nc5c4cc3-c3ccccc3)cc2)CCC1 [MK-2206] (100 nM),normalised response,MFM-223 [7],98.5%
same,normalised response,Hs578T [8],97.2%
same,normalised response,MDA-MB-453,76.5%
same,normalised response,MCF-10A,107%
same,normalised response,HCC1599,104%
same,normalised response,CAL-120 [9],99.8%
same,normalised response,CAL-85-1 [10],109%
same,normalised response,MDA-MB-436 [11],108%
same,normalised response,HCC1937 [12],96.6%
CC(C)C(=O)Nc1ccc([N+](=O)[O-])c(C(F)(F)F)c1 [Flutamide] (1000 nM),normalised response,MFM-223 [7],99.8%
same,normalised response,Hs578T [8],100%
same,normalised response,MDA-MB-453,99.7%
same,normalised response,MCF-10A,99.3%
same,normalised response,HCC1599,111%
same,normalised response,CAL-120 [9],94.7%
same,normalised response,CAL-85-1 [10],93.5%
same,normalised response,MDA-MB-436 [11],98.1%
same,normalised response,HCC1937 [12],96.2%
C[C@@H]1C[C@H]2[C@@H]3CCC4=CC(=O)C=C[C@]4(C)[C@@]3(F)[C@@H](O)C[C@]2(C)[C@@]1(O)C(=O)CO [Dexamethasone] (1000 nM),normalised response,MFM-223 [7],93.5%
same,normalised response,Hs578T [8],108%
same,normalised response,MDA-MB-453,84.6%
same,normalised response,MCF-10A,80.6%
same,normalised response,HCC1599,97.8%
same,normalised response,CAL-120 [9],68.7%
same,normalised response,CAL-85-1 [10],112%
same,normalised response,MDA-MB-436 [11],104%
same,normalised response,HCC1937 [12],98.1%
CN1CCN(c2nc(C3=C(c4c[nH]c5ccccc45)C(=O)NC3=O)c3ccccc3n2)CC1 [Sotrastaurin] (1000 nM),normalised response,MFM-223 [7],91.6%
same,normalised response,Hs578T [8],101%
same,normalised response,MDA-MB-453,102%
same,normalised response,MCF-10A,95.3%
same,normalised response,HCC1599,115%
same,normalised response,CAL-120 [9],93.7%
same,normalised response,CAL-85-1 [10],121%
same,normalised response,MDA-MB-436 [11],102%
same,normalised response,HCC1937 [12],96%
CCCCCOC(=O)Nc1nc(=O)n([C@@H]2O[C@H](C)[C@@H](O)[C@H]2O)cc1F [Capecitabine] (1000 nM),normalised response,MFM-223 [7],102%
same,normalised response,Hs578T [8],107%
same,normalised response,MDA-MB-453,111%
same,normalised response,MCF-10A,97%
same,normalised response,HCC1599,104%
same,normalised response,CAL-120 [9],107%
same,normalised response,CAL-85-1 [10],92.2%
same,normalised response,MDA-MB-436 [11],98.7%
same,normalised response,HCC1937 [12],94%
O=C(c1cc(Cc2n[nH]c(=O)c3ccccc23)ccc1F)N1CCN(C(=O)C2CC2)CC1 [Olaparib] (1000 nM),normalised response,MFM-223 [7],101%
same,normalised response,Hs578T [8],97.5%
same,normalised response,MDA-MB-453,132%
same,normalised response,MCF-10A,92.3%
same,normalised response,HCC1599,101%
same,normalised response,CAL-120 [9],92.3%
same,normalised response,CAL-85-1 [10],101%
same,normalised response,MDA-MB-436 [11],75.2%
same,normalised response,HCC1937 [12],95.6%
COc1cc2c(N3CCN(C(=O)Nc4ccc(OC(C)C)cc4)CC3)ncnc2cc1OCCCN1CCCCC1 [Tandutinib] (100 nM),normalised response,MFM-223 [7],101%
same,normalised response,Hs578T [8],96.3%
same,normalised response,MDA-MB-453,97.4%
same,normalised response,MCF-10A,96.6%
same,normalised response,HCC1599,121%
same,normalised response,CAL-120 [9],101%
same,normalised response,CAL-85-1 [10],109%
same,normalised response,MDA-MB-436 [11],114%
same,normalised response,HCC1937 [12],100%
CO[C@H](C(=O)[C@@H](O)[C@@H](C)O)[C@@H]1Cc2cc3cc(O[C@H]4C[C@@H](O[C@@H]5C[C@@H](O)[C@H](O)[C@@H](C)O5)[C@H](O)[C@@H](C)O4)c(C)c(O)c3c(O)c2C(=O)[C@H]1O[C@H]1C[C@@H](O[C@@H]2C[C@@H](O)[C@@H](O[C@@H]3C[C@](C)(O)[C@H](O)[C@@H](C)O3)[C@@H](C)O2)[C@H](O)[C@@H](C)O1 [Plicamycin] (1000 nM),normalised response,MFM-223 [7],104%
same,normalised response,Hs578T [8],104%
same,normalised response,MDA-MB-453,105%
same,normalised response,MCF-10A,110%
same,normalised response,HCC1599,120%
same,normalised response,CAL-120 [9],105%
same,normalised response,CAL-85-1 [10],100%
same,normalised response,MDA-MB-436 [11],103%
same,normalised response,HCC1937 [12],90%
